Laboratory results published in patent US20060100146A1, “AWAT-related methods and articles” (priority 2004, published 2006).
Several values for one entry are separate records, joined by “and”; a condition that tells them apart may be missing. Equal entries are not always repeated. Each block holds one molecule with its values, some of them ahead of it.

Key:
[1] = biological target: T1, human AWAT2 (hDC4) (Homo sapiens, UniProt Q6E213); assay: In vitro AWAT substrate specificity assay, AWAT2 microsomes; assay type: biochemical; details: for Activity of AWAT2 (hDC4) towards various wax alcohols / Activity of AWAT2 (hDC4) towards various acyl-CoAs: 10 μg microsomes, wax ester formed, vector control removed, mean +/- Std. dev., triplicate; for Activity of AWAT2 (hDC4) towards various wax alcohols: [14C]oleoyl-CoA as acyl donor; for Activity of AWAT2 (hDC4) towards various acyl-CoAs: [14C]cetyl alcohol as acyl acceptor
T1 construct: The full-length hDC4 was then sub cloned into the EcoRI site of the pRS423-GP vector; made in house; host or cells: Saccharomyces cerevisiae SCY2056 (dga1Δ lro1Δ are2), galactose-inducible pRS423-GP vector; microsomes used
T1 sequence (Q6E213 1-333): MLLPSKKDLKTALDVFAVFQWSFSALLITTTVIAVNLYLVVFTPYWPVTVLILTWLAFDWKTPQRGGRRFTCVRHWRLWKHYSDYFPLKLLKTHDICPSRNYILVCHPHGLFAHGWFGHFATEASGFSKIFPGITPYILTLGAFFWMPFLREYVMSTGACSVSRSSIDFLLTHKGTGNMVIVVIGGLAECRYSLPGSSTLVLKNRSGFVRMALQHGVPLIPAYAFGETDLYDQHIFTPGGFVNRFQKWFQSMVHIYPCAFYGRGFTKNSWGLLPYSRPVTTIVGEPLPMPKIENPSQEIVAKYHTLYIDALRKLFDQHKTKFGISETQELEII
Protocol: (§1) Acyl-CoA wax alcohol acyltransferase (AWAT) assays were performed as above with the following exceptions: 200 μM cetyl alcohol (unlabeled or [^14C]-labeled 10,000 dpm/nmol) was substituted for DAG, oleoyloleate was used as carrier, and reactions were incubated for 20 min in a final volume of 250 μl. After separation by TLC, the spot corresponding to wax ester was cut out and counted. For alcohol and acyl-CoA substrate specificity studies, microsomal preparations from DGA2 (20 μg) and hDC4 (10 μg) were used. Kill reactions and vector controls were included for all experiments. The various wax alcohols and acyl-Co A's were substituted for cetyl alcohol or oleoyl Co A at the concentrations specified above. Activity is presented as pmol/min/mg protein.
(§2) In vitro AWAT assays were performed using microsomal preparations from TG null yeast strains transformed with human AWAT1 (DGA2), AWAT2 (hDC4) or a vector control harboring no insert. AWAT1 (20 μg) and AWAT2 (10 μg) microsomes were assayed as described under Experimental Procedures. Activity is in pmol of wax ester formed per min/mg protein, expressed as a mean±Std. dev. from a representative experiment performed in triplicate. Vector control background has been removed. In vitro determination of alcohol and acyl-CoA substrate specificities were performed with [^14C]oleoyl-CoA and the indicated alcohols or [^14C]cetyl alcohol and the indicated acyl-CoA donors (Table 3A and 3B, respectively). Kill reactions were included for all experiments.

[2] = biological target: T2, human AWAT1 (DGA2) (Homo sapiens, UniProt Q58HT5); assay: In vitro AWAT substrate specificity assay, AWAT1 microsomes; assay type: biochemical; details: for Activity of AWAT1 (DGA2) towards various wax alcohols / Activity of AWAT1 (DGA2) towards various acyl-CoAs: 20 μg microsomes, wax ester formed, vector control removed, mean +/- Std. dev., triplicate; for Activity of AWAT1 (DGA2) towards various wax alcohols: [14C]oleoyl-CoA as acyl donor; for Activity of AWAT1 (DGA2) towards various acyl-CoAs: [14C]cetyl alcohol as acyl acceptor
T2 construct: The full length DGA2 was sub cloned into the EcoRI and NotI sites of the pRS423-GP vector; made in house; host or cells: Saccharomyces cerevisiae SCY2056 (dga1Δ lro1Δ are2), galactose-inducible pRS423-GP vector; microsomes used
T2 sequence (Q58HT5 1-328): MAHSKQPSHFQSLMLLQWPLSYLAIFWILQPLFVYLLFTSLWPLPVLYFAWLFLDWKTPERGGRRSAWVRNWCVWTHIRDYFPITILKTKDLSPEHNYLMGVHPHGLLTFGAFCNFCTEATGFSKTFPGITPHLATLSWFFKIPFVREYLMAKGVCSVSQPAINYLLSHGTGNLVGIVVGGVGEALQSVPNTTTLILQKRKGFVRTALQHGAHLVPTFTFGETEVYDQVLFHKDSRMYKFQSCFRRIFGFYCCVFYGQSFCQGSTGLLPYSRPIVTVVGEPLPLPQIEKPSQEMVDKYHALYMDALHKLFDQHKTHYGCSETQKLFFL
Protocol: as §1, §2

[3] = tested on: wax ester formation from cetyl alcohol and oleoyl-CoA; assay: In vitro AWAT (acyl-CoA wax alcohol acyltransferase) assay in yeast microsomes; assay type: biochemical, human
Protocol: (§3) A dilute inoculation of each strain into 500 mL of SC-His+2% galactose+1% raffinose was grown overnight at 30° C. into log phase. Cells were washed and lysed, and microsomes were prepared from a 100,000 g spin, as previously described (39). Protein concentrations were determined (40) and diacylglycerol esterification assays were performed as described previously (17,19,41). In brief, microsomes (100 μg) were preincubated for 5 min at 37° in 100 mM TRIS, pH 7.5 containing 0.25 M sucrose, 1 mM EDTA, 10 mM MgCl2, 20 μM fatty acid free BSA, 160 μM dioleoylglycerol (in 5 μl acetone, final volume 200 μl). The reaction was initiated by the addition of [^14C]oleoyl-CoA (10-20,000 dpm/nmol, 40 μM) and stopped after 10 min by the addition of 4 ml of chloroform:methanol (2:1 v/v). Carrier TAG (10 μg) and internal standard ([^3H]triolein, 30,000 dpm) were added followed by 0.8 ml water to separate phases. The lower chloroform layer containing the lipids was removed, evaporated to dryness, resuspended in 50 μl chloroform and individual lipid classes separated on Varian chromatography paper using a hexane:diethyl ether:acetic acid (170:30:1 v/v) mobile phase. The spot corresponding to TG was cut out and counted.
as §1
(§4) Microsomes from TG-null yeast strains transformed with human DGAT2, DGA2, hDC3, or hDC4 were incubated in the presence of dioleoylglycerol or cetyl alcohol and [^14C]oleoyl-CoA and assayed for esterification as described in Experimental Procedures. Data are expressed as pmol of neutral lipid (TAG or Wax ester) formed per min/mg protein as a mean±Std. dev. DGAT activities are from 3 replicate experiments and AWAT activities are from a representative experiment performed in triplicate. Background levels to the assay from strains transformed with vector control have been subtracted.

[4] = tested on: TAG formation from dioleoylglycerol and [14C]oleoyl-CoA; assay: In vitro DGAT (diacylglycerol esterification) assay in yeast microsomes; assay type: biochemical; details: microsomes from TG-null yeast expressing the human enzyme; dioleoylglycerol + [14C]oleoyl-CoA; TAG formed; vector control subtracted; mean +/- Std. dev., 3 replicate experiments
Protocol: as §3, §4

[5] = [14C]cetyl alcohol rather than radiolabeled oleoyl CoA as monitor of ester formation
[6] = microsomes from TG-null yeast expressing the human enzyme, cetyl alcohol + [14C]oleoyl-CoA, wax ester formed, vector control subtracted, mean +/- Std. dev., triplicate

Activity of AWAT2 (hDC4) towards various wax alcohols [1]: 138 +/− 24 pmol/min/mg protein | Activity of AWAT1 (DGA2) towards various wax alcohols [2]: 27 +/− 5 pmol/min/mg protein
Molecule: CCCCCCCCCCCCCCCCCCO [Stearyl C-18]

Activity of AWAT2 (hDC4) towards various wax alcohols [1]: −50 +/− 277 pmol/min/mg protein | AWAT2 activity using the alcohol (in words) ([1]; oleoyl CoA as acyl donor): no activity | Activity of AWAT1 (DGA2) towards various wax alcohols [2]: 419 +/− 180 pmol/min/mg protein
Molecule: CCCCCCCCCCO [Decyl C-10, decyl alcohol]

Activity of AWAT2 (hDC4) towards various wax alcohols [1]: 27 +/− 4 pmol/min/mg protein | Activity of AWAT1 (DGA2) towards various wax alcohols [2]: 22 +/− 4 pmol/min/mg protein | Utilization by AWAT1 relative to decyl alcohol ([2]; oleoyl CoA as acyl donor): about 5%
Molecule: CCCCCCCCCCCCCCCCCCCCO [Arachidyl C-20, arachidyl alcohol]

Activity of AWAT2 (hDC4) towards various acyl-CoAs [1]: 524 +/− 164 pmol/min/mg protein | Activity of AWAT1 (DGA2) towards various acyl-CoAs [2]: 390 +/− 121 pmol/min/mg protein
Molecule: CCCCCCCCCCCCCCCC(=O)SCCNC(=O)CCNC(=O)[C@H](O)C(C)(C)COP(=O)(O)OP(=O)(O)OC[C@H]1O[C@@H](n2cnc3c(N)ncnc32)[C@H](O)[C@@H]1OP(=O)(O)O [Palmitoyl C-16]

Activity of AWAT2 (hDC4) towards various acyl-CoAs [1]: 549 +/− 38 pmol/min/mg protein | Activity of AWAT1 (DGA2) towards various acyl-CoAs [2]: 656 +/− 39 pmol/min/mg protein
Molecule: CCCCCCCCCCCCCCCCCC(=O)SCCNC(=O)CCNC(=O)[C@H](O)C(C)(C)COP(=O)(O)OP(=O)(O)OC[C@H]1O[C@@H](n2cnc3c(N)ncnc32)[C@H](O)[C@@H]1OP(=O)(O)O [Stearoyl C-18, stearoyl CoA]

Second part, the molecule before the results:

Molecule: CCCCCCCC/C=C\CCCCCCCCO [Oleyl C-18:1]
Activity of AWAT2 (hDC4) towards various wax alcohols [1]: 892 +/− 106 pmol/min/mg protein | Activity of AWAT1 (DGA2) towards various wax alcohols [2]: 247 +/− 23 pmol/min/mg protein

Molecule: CCCCCCCCCCCCCCCCO [Cetyl (Palmityl) C-16, cetyl alcohol]
Activity of AWAT2 (hDC4) towards various wax alcohols [1]: 665 +/− 54 pmol/min/mg protein | Activity of AWAT1 (DGA2) towards various wax alcohols [2]: 83 +/− 6 pmol/min/mg protein

Molecule: CCCCCC/C=C\CCCCCCCC(=O)SCCNC(=O)CCNC(=O)[C@H](O)C(C)(C)COP(=O)(O)OP(=O)(O)OC[C@H]1O[C@@H](n2cnc3c(N)ncnc32)[C@H](O)[C@@H]1OP(=O)(O)O [Palmitoleoyl C-16:1, palmitoleoyl CoA]
Activity of AWAT2 (hDC4) towards various acyl-CoAs [1]: 1125 +/− 220 pmol/min/mg protein | Activity of AWAT1 (DGA2) towards various acyl-CoAs [2]: −20 +/− 25 pmol/min/mg protein | AWAT1 activity using the acyl-CoA (in words) ([2]; cetyl alcohol as acyl acceptor): no activity

Molecule: CCCCCCCC/C=C\CCCCCCCC(=O)SCCNC(=O)CCNC(=O)[C@H](O)C(C)(C)COP(=O)(O)OP(=O)(O)OC[C@H]1O[C@@H](n2cnc3c(N)ncnc32)[C@H](O)[C@@H]1OP(=O)(O)O [Oleoyl C-18:1, oleoyl CoA]
Activity of AWAT2 (hDC4) towards various acyl-CoAs [1]: 1232 +/− 349 pmol/min/mg protein | Activity of AWAT1 (DGA2) towards various acyl-CoAs [2]: 113 +/− 7 pmol/min/mg protein | Utilization by AWAT1 relative to stearoyl CoA (C18:0) ([2]; cetyl alcohol as acyl acceptor): 20%

Molecule: CCCCCC/C=C\CCCCCCCCO [Palmitoleyl C-16:1]
Activity of AWAT2 (hDC4) towards various wax alcohols [1]: 582 +/− 117 pmol/min/mg protein | Activity of AWAT1 (DGA2) towards various wax alcohols [2]: 184 +/− 29 pmol/min/mg protein

B1: hDC4: acyl-CoA wax alcohol acyltransferase 2, synonym human DGAT candidate gene 4; human enzyme expressed in yeast microsomes (protein, UniProt Q6E213 1-333, looked up)
Acyl-CoA wax alcohol …: T1 sequence (Q6E213 1-333)
modifications: yeast microsomes
notes: acyl-CoA wax alcohol acyltransferase 2, synonym human DGAT candidate gene 4; human enzyme expressed in yeast microsomes
AWAT Activity [3, 5]: 1232 pmol/min/mg | AWAT Activity [3, 6]: 1066 pmol/min/mg protein and 1066 +/− 18.6 pmol/min/mg protein | DGAT Activity [4]: 11.4 +/− 3.4 pmol/min/mg protein

B2: DGA2: acyl-CoA wax alcohol acyltransferase 1, synonym diacyl-glycerol acyltransferase 2; human enzyme expressed in yeast microsomes (protein, UniProt Q58HT5 1-328, looked up)
Acyl-CoA wax alcohol …: T2 sequence (Q58HT5 1-328)
modifications: yeast microsomes
notes: acyl-CoA wax alcohol acyltransferase 1, synonym diacyl-glycerol acyltransferase 2; human enzyme expressed in yeast microsomes
AWAT Activity [3, 5]: 113 pmol/min/mg | AWAT Activity [3, 6]: 31.7 pmol/min/mg protein and 31.7 +/− 17.4 pmol/min/mg protein | DGAT Activity [4]: 7.8 +/− 3.2 pmol/min/mg protein

B3: DGAT2: human diacylglycerol acyltransferase 2, expressed in TG-null yeast; microsomes assayed (protein, UniProt Q96PD7 1-388, looked up)
Diacylglycerol …: MKTLIAAYSGVLRGERQAEADRSQRSHGGPALSREGSGRWGTGSSILSALQDLFSVTWLNRSKVEKQLQVISVLQWVLSFLVLGVACSAILMYIFCTDCWLIAVLYFTWLVFDWNTPKKGGRRSQWVRNWAVWRYFRDYFPIQLVKTHNLLTTRNYIFGYHPHGIMGLGAFCNFSTEATEVSKKFPGIRPYLATLAGNFRMPVLREYLMSGGICPVSRDTIDYLLSKNGSGNAIIIVVGGAAESLSSMPGKNAVTLRNRKGFVKLALRHGADLVPIYSFGENEVYKQVIFEEGSWGRWVQKKFQKYIGFAPCIFHGRGLFSSDTWGLVPYSKPITTVVGEPITIPKLEHPTQQDIDLYHTMYMEALVKLFDKHKTKFGLPETEVLEVN
modifications: yeast microsomes
notes: human diacylglycerol acyltransferase 2, expressed in TG-null yeast; microsomes assayed
AWAT Activity [3, 6]: −11.5 +/− 1.3 pmol/min/mg protein | DGAT Activity [4]: 65.4 pmol/min/mg protein and 65.4 +/− 3.4 pmol/min/mg protein
